Results published in ChEMBL document CHEMBL5058646 (2022).

Experiments:
[1] = biological target: Lymphokine-activated killer T-cell-originated protein kinase (Homo sapiens) (UniProt Q96KB5); test: TOPK SGC Tm panel (DSF); conditions: Compound concentration 20.0 uM
[2] = biological target: Muscarinic acetylcholine receptor M2 (Homo sapiens) (UniProt P08172); conditions: Compound concentration 10.0 uM
[3] = biological target: Ephrin type-B receptor 3 (Homo sapiens) (UniProt P54753); test: EPHB3 SGC Tm panel (DSF); conditions: Compound concentration 20.0 uM
[4] = biological target: T1, Zinc finger and BTB domain-containing protein 11 (Homo sapiens) (UniProt O95625); conditions: SUD4, Compound concentration 1.0 uM
T1 sequence (whole entry): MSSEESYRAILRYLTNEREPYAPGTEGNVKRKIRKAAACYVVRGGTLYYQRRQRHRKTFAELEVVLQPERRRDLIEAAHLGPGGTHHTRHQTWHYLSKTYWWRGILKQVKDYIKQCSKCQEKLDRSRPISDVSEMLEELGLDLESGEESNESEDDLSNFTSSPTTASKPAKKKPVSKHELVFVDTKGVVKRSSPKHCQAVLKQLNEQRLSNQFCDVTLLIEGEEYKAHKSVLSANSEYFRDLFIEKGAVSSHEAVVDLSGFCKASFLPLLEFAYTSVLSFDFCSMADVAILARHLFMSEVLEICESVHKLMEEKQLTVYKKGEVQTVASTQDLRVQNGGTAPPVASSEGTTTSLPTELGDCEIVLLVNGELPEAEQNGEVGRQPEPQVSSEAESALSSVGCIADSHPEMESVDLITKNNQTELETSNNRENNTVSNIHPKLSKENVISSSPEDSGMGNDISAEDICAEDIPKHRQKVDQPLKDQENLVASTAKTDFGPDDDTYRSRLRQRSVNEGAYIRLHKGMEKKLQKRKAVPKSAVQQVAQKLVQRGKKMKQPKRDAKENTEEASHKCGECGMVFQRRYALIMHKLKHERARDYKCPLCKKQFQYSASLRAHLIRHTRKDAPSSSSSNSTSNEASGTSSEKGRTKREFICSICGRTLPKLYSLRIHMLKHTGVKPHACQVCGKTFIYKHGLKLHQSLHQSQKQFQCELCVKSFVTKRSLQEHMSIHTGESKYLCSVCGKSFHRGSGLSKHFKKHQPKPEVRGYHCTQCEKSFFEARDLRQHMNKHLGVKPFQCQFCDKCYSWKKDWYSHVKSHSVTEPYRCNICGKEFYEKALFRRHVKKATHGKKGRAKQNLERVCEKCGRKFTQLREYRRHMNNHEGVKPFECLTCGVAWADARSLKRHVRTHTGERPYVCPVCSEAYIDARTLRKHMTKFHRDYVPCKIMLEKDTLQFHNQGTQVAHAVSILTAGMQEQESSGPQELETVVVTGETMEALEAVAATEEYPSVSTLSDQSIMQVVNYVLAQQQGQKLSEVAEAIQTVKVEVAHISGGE

[5] = biological target: Zinc finger and BTB domain-containing protein 17 (Homo sapiens) (UniProt Q13105); conditions: SUD4, Compound concentration 1.0 uM
Sequence of Zinc finger and BTB domain-containing protein 17 (Homo sapiens) (Q13105 whole entry, the tested form may be a part): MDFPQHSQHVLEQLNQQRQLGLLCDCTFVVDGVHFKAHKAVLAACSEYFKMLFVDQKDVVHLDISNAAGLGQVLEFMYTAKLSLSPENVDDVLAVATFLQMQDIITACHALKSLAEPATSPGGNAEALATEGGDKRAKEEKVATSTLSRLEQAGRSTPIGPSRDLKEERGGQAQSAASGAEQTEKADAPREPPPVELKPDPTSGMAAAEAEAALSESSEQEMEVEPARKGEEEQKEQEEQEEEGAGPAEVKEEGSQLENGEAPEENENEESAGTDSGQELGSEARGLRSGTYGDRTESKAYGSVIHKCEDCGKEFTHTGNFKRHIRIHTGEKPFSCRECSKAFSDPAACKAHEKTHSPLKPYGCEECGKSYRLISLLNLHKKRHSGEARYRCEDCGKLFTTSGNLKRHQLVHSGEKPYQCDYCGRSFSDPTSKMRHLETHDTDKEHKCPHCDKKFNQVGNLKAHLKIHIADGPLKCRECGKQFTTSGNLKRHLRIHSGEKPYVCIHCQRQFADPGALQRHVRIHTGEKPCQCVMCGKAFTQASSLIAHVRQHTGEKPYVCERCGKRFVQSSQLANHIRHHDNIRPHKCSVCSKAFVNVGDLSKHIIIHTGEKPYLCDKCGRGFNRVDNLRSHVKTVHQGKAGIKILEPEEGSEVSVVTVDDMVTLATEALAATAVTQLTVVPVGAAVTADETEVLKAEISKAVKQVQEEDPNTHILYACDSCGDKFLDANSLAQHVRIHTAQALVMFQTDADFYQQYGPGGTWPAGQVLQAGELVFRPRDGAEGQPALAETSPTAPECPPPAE

[6] = biological target: Ephrin type-A receptor 4 (Homo sapiens) (UniProt P54764); test: EPHA4 SGC Tm panel (DSF); conditions: Compound concentration 20.0 uM
[7] = biological target: T2, Zinc finger and BTB domain-containing protein 40 (Homo sapiens) (UniProt Q9NUA8); conditions: SUD4, Compound concentration 1.0 uM
T2 sequence (whole entry): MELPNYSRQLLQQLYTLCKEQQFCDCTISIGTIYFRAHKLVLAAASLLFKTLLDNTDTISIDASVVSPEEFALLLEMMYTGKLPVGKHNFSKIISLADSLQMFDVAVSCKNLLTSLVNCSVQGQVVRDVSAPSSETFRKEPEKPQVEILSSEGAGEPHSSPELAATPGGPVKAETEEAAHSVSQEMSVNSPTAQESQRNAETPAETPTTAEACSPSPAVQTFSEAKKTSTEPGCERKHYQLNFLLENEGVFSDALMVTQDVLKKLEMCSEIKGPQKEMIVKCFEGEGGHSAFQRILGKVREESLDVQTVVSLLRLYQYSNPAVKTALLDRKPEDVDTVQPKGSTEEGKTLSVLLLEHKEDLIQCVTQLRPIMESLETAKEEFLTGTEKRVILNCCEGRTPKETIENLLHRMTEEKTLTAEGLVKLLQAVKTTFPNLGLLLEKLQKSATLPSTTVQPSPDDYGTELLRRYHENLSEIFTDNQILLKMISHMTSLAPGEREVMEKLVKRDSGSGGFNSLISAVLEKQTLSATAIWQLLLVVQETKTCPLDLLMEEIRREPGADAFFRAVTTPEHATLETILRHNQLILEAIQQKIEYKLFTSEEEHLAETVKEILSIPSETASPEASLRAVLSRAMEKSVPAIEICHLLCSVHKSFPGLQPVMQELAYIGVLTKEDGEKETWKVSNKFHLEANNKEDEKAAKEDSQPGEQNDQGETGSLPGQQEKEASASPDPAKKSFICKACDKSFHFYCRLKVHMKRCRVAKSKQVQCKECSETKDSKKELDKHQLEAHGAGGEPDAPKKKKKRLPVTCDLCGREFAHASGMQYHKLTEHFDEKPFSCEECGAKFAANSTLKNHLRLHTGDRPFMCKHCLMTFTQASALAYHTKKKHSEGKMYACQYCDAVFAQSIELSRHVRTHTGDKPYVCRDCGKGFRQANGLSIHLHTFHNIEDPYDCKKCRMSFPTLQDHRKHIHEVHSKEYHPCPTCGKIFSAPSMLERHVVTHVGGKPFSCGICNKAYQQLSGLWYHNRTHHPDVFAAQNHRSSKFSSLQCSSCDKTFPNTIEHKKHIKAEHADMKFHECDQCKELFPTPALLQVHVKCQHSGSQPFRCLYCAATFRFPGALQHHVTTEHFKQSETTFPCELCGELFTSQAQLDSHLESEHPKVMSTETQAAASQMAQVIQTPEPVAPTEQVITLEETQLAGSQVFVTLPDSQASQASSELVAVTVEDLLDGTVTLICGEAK

[8] = biological target: Casein kinase II subunit alpha' (Homo sapiens) (UniProt P19784); test: CSNK2A2 SGC Tm panel (DSF); conditions: Compound concentration 20.0 uM
Sequence of Casein kinase II subunit alpha' (Homo sapiens) (P19784 whole entry, looked up): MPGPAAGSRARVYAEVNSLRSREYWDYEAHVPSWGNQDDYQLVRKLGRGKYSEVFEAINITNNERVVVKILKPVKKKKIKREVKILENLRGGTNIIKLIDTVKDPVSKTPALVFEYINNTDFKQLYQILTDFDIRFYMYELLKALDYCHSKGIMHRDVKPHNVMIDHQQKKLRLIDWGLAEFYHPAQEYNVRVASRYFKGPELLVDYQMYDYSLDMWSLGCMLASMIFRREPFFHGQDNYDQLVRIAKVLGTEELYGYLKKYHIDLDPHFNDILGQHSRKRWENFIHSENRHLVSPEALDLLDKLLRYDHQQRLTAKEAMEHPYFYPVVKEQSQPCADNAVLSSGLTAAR

[9] = biological target: Glycogen synthase kinase-3 beta (Homo sapiens) (UniProt P49841); test: GSK3B SGC Tm panel (DSF); conditions: Compound concentration 20.0 uM
Sequence of Glycogen synthase kinase-3 beta (Homo sapiens) (P49841 whole entry, looked up): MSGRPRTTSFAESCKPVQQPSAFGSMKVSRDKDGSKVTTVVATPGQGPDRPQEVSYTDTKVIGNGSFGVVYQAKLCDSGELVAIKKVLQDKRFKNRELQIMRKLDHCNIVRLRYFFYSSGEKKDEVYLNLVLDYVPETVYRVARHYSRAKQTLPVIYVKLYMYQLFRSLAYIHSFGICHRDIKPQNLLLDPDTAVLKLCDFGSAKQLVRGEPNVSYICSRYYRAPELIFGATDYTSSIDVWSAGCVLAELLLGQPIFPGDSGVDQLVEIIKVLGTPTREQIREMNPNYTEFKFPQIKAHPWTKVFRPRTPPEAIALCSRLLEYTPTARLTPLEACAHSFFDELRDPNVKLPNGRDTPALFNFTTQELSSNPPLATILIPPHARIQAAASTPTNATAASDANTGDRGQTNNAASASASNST

[10] = biological target: STE20-like serine/threonine-protein kinase (Homo sapiens) (UniProt Q9H2G2); test: SLK SGC Tm panel (DSF); conditions: Compound concentration 20.0 uM
[11] = biological target: Sodium-dependent dopamine transporter (Homo sapiens, UniProt Q01959); conditions: Compound concentration 10.0 uM
Sequence of Sodium-dependent dopamine transporter (Q01959 whole entry): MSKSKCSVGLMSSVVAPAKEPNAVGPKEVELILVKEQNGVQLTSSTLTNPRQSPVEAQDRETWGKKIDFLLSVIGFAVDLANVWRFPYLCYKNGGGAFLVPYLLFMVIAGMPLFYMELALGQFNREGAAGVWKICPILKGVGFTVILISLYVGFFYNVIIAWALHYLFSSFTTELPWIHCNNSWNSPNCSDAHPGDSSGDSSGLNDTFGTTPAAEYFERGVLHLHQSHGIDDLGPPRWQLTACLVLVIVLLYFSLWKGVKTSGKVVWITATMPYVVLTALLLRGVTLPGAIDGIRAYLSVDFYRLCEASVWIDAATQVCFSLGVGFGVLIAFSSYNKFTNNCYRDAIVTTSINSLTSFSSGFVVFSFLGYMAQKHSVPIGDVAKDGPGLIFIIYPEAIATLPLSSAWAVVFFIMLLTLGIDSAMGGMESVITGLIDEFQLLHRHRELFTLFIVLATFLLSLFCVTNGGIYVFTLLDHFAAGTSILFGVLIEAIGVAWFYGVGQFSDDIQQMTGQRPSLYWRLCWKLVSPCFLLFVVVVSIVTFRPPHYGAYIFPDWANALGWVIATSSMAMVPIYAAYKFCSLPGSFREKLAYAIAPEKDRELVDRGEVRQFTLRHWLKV

[12] = biological target: Serine/threonine-protein kinase OSR1 (Homo sapiens) (UniProt O95747); test: OSR1 SGC Tm panel (DSF); conditions: Compound concentration 20.0 uM
Sequence of Serine/threonine-protein kinase OSR1 (Homo sapiens) (O95747 2-527 limits assumed): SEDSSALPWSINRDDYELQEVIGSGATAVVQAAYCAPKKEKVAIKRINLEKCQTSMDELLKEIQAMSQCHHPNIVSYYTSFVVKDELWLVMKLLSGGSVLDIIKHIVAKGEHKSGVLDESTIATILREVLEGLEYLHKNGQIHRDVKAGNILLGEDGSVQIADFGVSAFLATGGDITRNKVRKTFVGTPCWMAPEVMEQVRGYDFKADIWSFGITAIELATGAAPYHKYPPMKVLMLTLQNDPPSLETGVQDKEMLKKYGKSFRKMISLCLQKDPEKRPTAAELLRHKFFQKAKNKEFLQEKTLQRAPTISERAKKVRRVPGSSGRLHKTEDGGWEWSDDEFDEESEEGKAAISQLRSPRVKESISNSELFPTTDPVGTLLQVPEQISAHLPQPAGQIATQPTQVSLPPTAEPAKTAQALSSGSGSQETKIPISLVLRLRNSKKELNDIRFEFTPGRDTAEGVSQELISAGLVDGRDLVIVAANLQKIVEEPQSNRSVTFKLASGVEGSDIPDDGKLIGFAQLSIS

[13] = biological target: Mitogen-activated protein kinase 1 (Homo sapiens) (UniProt P28482); test: MAPK1 SGC Tm panel (DSF); conditions: Compound concentration 20.0 uM
Sequence of Mitogen-activated protein kinase 1 (Homo sapiens) (P28482 whole entry): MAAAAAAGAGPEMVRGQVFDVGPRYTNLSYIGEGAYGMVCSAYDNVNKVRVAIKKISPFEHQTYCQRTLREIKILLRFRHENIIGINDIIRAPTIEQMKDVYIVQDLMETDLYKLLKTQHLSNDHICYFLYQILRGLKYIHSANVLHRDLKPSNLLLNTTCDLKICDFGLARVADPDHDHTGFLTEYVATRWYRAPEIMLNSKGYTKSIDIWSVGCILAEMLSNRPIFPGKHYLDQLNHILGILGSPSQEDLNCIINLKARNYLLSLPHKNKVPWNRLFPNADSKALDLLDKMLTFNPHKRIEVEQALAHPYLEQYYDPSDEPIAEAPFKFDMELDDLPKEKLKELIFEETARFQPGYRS

[14] = biological target: Sigma non-opioid intracellular receptor 1 (Homo sapiens) (UniProt Q99720); conditions: Compound concentration 10.0 uM
Sequence of Sigma non-opioid intracellular receptor 1 (Homo sapiens) (Q99720 whole entry): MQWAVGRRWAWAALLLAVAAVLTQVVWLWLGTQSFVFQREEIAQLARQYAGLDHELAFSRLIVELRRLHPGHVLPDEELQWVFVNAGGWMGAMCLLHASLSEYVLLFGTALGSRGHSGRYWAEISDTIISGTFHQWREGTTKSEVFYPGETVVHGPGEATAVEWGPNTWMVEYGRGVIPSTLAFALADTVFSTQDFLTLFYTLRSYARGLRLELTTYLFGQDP

Sequence of Muscarinic acetylcholine receptor M2 (Homo sapiens) (P08172 whole entry): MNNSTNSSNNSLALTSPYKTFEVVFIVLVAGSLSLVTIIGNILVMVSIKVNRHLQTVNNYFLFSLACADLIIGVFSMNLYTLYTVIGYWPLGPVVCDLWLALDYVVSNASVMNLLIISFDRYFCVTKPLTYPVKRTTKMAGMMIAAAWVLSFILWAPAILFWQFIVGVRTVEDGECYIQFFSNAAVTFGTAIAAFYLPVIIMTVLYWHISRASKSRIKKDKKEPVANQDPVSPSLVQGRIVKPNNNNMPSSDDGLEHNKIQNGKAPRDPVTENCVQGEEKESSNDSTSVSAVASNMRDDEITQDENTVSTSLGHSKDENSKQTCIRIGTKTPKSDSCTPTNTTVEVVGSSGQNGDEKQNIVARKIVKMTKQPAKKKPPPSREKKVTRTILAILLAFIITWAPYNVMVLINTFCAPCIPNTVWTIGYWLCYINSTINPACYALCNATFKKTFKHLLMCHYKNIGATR
Sequence of Lymphokine-activated killer T-cell-originated protein kinase (Homo sapiens) (Q96KB5 whole entry): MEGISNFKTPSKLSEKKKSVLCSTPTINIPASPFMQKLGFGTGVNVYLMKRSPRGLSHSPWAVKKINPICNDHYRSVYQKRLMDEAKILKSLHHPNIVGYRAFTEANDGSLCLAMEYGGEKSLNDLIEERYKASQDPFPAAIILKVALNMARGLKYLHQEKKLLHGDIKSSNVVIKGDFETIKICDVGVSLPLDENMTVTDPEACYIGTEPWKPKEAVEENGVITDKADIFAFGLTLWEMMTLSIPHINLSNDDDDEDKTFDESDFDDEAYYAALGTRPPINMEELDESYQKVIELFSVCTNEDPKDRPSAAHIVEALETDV

Q: What does the source list for `C[C@@H]1CN(c2ncc(Cl)c(Nc3ccc4c(c3)n(CCC(C)(C)O)c(=O)n4C)n2)C[C@H](C)C1(F)F`?
A: Tm [1]: 43 °C; inhibition [2]: 0.77%; Tm [3]: 52 °C; LogFC [4]: 0.0341; LogFC [5]: 0.0294; Tm [6]: 54 °C; LogFC [7]: -0.00123; Tm [8]: 43 °C; Tm [9]: 45 °C; Tm [10]: 42 °C; inhibition [11]: 50.8%; Tm [12]: 39 °C; Tm [13]: 56 °C; inhibition [14]: 47.4%
